± gives the expanded uncertainty stated by the source.
Details: Liquid, Ebulliometric method (Recirculating still)

Structure (SMILES) | vapor or sublimation pressure (390.48 K) | vapor or sublimation pressure (399.15 K)
CCCCO [butan-1-ol] | 101.3 ± 0.91 kPa | –
CCCCOC(C)=O [butyl ethanoate] | – | 101.3 ± 0.91 kPa

Source: the NIST ThermoML archive (doi:10.1021/je5000296)
